ChEMBL document CHEMBL3885881, “DrugMatrix”

Species on record: Rattus norvegicus
Assay: DrugMatrix - Regimen: Daily Repeat
Format: toxicity, organism-based, Sprague-Dawley
Design: regimen Daily Repeat, gender Male, age 6-8 weeks
Conditions: in vivo, po, route oral GAVAGE, vehicle 100 % WATER; for HEMATOCRIT / HEMOGLOBIN / LEUKOCYTE COUNT / MEAN CORPUSCULAR HEMOGLOBIN / MEAN CORPUSCULAR HEMOGLOBIN CONCENTRATION / MEAN CORPUSCULAR VOLUME: tissue Blood; for ALANINE AMINOTRANSFERASE / ALBUMIN / ALKALINE PHOSPHATASE / ASPARTATE AMINOTRANSFERASE / BLOOD UREA NITROGEN / CARBON DIOXIDE / CHLORIDE / CHOLESTEROL / CREATINE PHOSPHOKINASE / CREATININE / LACTATE DEHYDROGENASE / LIPASE / PHOSPHORUS / TOTAL BILIRUBIN / TOTAL PROTEIN / URIC ACID: tissue Plasma
[1] = 0 mg/kg, 72 h, dose level Control, time 3 day
[2] = 0 mg/kg, 120 h, dose level Control, time 5 day
[3] = 58 mg/kg, 72 h, dose level Low, time 3 day
[4] = 58 mg/kg, 120 h, dose level Low, time 5 day

Compound: COc1cc2ncnc(Nc3ccc(F)c(Cl)c3)c2cc1OCCCN1CCOCC1 [GEFITINIB]
- HEMATOCRIT [1]: 42.62%
- HEMOGLOBIN [1]: 13.07 G/DL
- LEUKOCYTE COUNT [1]: 13.95 x10E3/uL
- MEAN CORPUSCULAR HEMOGLOBIN [1]: 21.47 pg
- MEAN CORPUSCULAR HEMOGLOBIN CONCENTRATION [1]: 30.62 G/DL
- MEAN CORPUSCULAR VOLUME [1]: 70.05 fL
- ALANINE AMINOTRANSFERASE [1]: 47.67 u/L
- ALBUMIN [1]: 3.8 G/DL
- ALKALINE PHOSPHATASE [1]: 369 u/L
- ASPARTATE AMINOTRANSFERASE [1]: 86.17 u/L
- BLOOD UREA NITROGEN [1]: 16.33 mg/dL
- CARBON DIOXIDE [1]: 37.33 mmol/L
- CHLORIDE [1]: 104.83 MEQ/L
- CHOLESTEROL [1]: 79.83 mg/dL
- CREATINE PHOSPHOKINASE [1]: 392.83 u/L
- CREATININE [1]: 0.68 mg/dL
- LACTATE DEHYDROGENASE [1]: 426.17 u/L
- LIPASE [1]: 11.67 u/L
- PHOSPHORUS [1]: 11 mg/dL
- TOTAL BILIRUBIN [1]: 0.55 mg/dL
- TOTAL PROTEIN [1]: 6.32 G/DL
- URIC ACID [1]: 0.0167 mg/dL
- HEMATOCRIT [2]: 46.82%
- HEMOGLOBIN [2]: 14.23 G/DL
- LEUKOCYTE COUNT [2]: 13.43 x10E3/uL
- MEAN CORPUSCULAR HEMOGLOBIN [2]: 20.55 pg
- MEAN CORPUSCULAR HEMOGLOBIN CONCENTRATION [2]: 30.38 G/DL
- MEAN CORPUSCULAR VOLUME [2]: 67.62 fL
- ALANINE AMINOTRANSFERASE [2]: 44.67 u/L
- ALBUMIN [2]: 3.8 G/DL
- ALKALINE PHOSPHATASE [2]: 417.83 u/L
- ASPARTATE AMINOTRANSFERASE [2]: 83 u/L
- BLOOD UREA NITROGEN [2]: 15.33 mg/dL
- CARBON DIOXIDE [2]: 38.83 mmol/L
- CHLORIDE [2]: 98.17 MEQ/L
- CHOLESTEROL [2]: 66.83 mg/dL
- CREATINE PHOSPHOKINASE [2]: 383.17 u/L
- CREATININE [2]: 0.72 mg/dL
- LACTATE DEHYDROGENASE [2]: 519.67 u/L
- LIPASE [2]: 4.83 u/L
- PHOSPHORUS [2]: 11.07 mg/dL
- TOTAL BILIRUBIN [2]: 0.55 mg/dL
- TOTAL PROTEIN [2]: 6.3 G/DL
- URIC ACID [2]: 0.0833 mg/dL
- HEMATOCRIT [3]: 45.2%
- HEMOGLOBIN [3]: 13.93 G/DL
- LEUKOCYTE COUNT [3]: 13.22 x10E3/uL
- MEAN CORPUSCULAR HEMOGLOBIN [3]: 21.17 pg
- MEAN CORPUSCULAR HEMOGLOBIN CONCENTRATION [3]: 30.87 G/DL
- MEAN CORPUSCULAR VOLUME [3]: 68.57 fL
- ALANINE AMINOTRANSFERASE [3]: 47.67 u/L
- ALBUMIN [3]: 3.63 G/DL
- ALKALINE PHOSPHATASE [3]: 348 u/L
- ASPARTATE AMINOTRANSFERASE [3]: 93.67 u/L
- BLOOD UREA NITROGEN [3]: 18 mg/dL
- CARBON DIOXIDE [3]: 36.33 mmol/L
- CHLORIDE [3]: 108 MEQ/L
- CHOLESTEROL [3]: 79.67 mg/dL
- CREATINE PHOSPHOKINASE [3]: 307.67 u/L
- CREATININE [3]: 0.7 mg/dL
- LACTATE DEHYDROGENASE [3]: 373.67 u/L
- LIPASE [3]: 10.67 u/L
- PHOSPHORUS [3]: 10.37 mg/dL
- TOTAL BILIRUBIN [3]: 0.37 mg/dL
- TOTAL PROTEIN [3]: 5.97 G/DL
- URIC ACID [3]: 0 mg/dL
- HEMATOCRIT [4]: 46.33%
- HEMOGLOBIN [4]: 14.27 G/DL
- LEUKOCYTE COUNT [4]: 14.5 x10E3/uL
- MEAN CORPUSCULAR HEMOGLOBIN [4]: 20.73 pg
- MEAN CORPUSCULAR HEMOGLOBIN CONCENTRATION [4]: 30.83 G/DL
- MEAN CORPUSCULAR VOLUME [4]: 67.23 fL
- ALANINE AMINOTRANSFERASE [4]: 52.67 u/L
- ALBUMIN [4]: 3.6 G/DL
- ALKALINE PHOSPHATASE [4]: 361.67 u/L
- ASPARTATE AMINOTRANSFERASE [4]: 94 u/L
- BLOOD UREA NITROGEN [4]: 17.33 mg/dL
- CARBON DIOXIDE [4]: 35.67 mmol/L
- CHLORIDE [4]: 100.33 MEQ/L
- CHOLESTEROL [4]: 85.33 mg/dL
- CREATINE PHOSPHOKINASE [4]: 299.67 u/L
- CREATININE [4]: 0.7 mg/dL
- LACTATE DEHYDROGENASE [4]: 423.67 u/L
- LIPASE [4]: 5.33 u/L
- PHOSPHORUS [4]: 11.87 mg/dL
- TOTAL BILIRUBIN [4]: 0.4 mg/dL
- TOTAL PROTEIN [4]: 6.07 G/DL
- URIC ACID [4]: 0.0333 mg/dL
